# Data taken from a melting point compilation (Tetko et al.; mined from patent text by program, amines drawn as free bases though some values may be those of a salt).
row,melting point [°C],Structure (SMILES)
1,177,CC(=O)Oc1c2c(c3ccccc3c1OC(=O)CNC(=O)OC(C)(C)C)OC(C)(C)CC2
2,223 to 225,CCn1nc2c(N)nc3ccccc3c2c1CC(C)(C)O
3,96 to 99,CCCn1cc(Cc2ccc(C(=O)NS(=O)(=O)c3ccccc3Br)cc2OC)c2cc(CCC(C)C(=O)N(C)C)ccc21 (configuration not stated)
4,55,COC(=O)CCCc1ccc(CNC(=O)C2Cc3ccccc3N2S(=O)(=O)c2ccc(-c3cccc(C(F)(F)F)c3)cc2)cc1 (configuration not stated)
5,80,CCCCCc1ccc([C@H]2CC[C@H](c3ccc(C#N)cc3)CC2)cc1
6,208,COc1ccc(C=C2CCN(C(=O)c3nc4ccc(O)cc4[nH]3)CC2)cc1
7,125,C=C(C)CCC(=O)C(C(=O)OCC)C1c2ccccc2C(=O)N1c1ccc2ccc(Cl)nc2n1 (configuration not stated)
8,127,CCOC(=O)N1CCC(Nc2nc3ncnc(Cl)c3n2Cc2ccc(F)cc2)CC1
9,270,Cc1c(C(=O)Nc2ccc(N3CCC(N4CCOCC4)CC3)c(C(N)=O)c2)cnn1-c1ccc(Cl)cc1
10,> 300,O=CN1CCN(c2ncc3c(=O)c(C(=O)ON4C(=O)CCC4=O)c[nH]c3n2)CC1
11,112 to 113,Cc1oc(-c2ccccc2)nc1CCOc1ccc(CC(C)(C)C(=O)NS(C)(=O)=O)cc1
12,95 to 96,CCCCC(CC)c1nc2cc(Cl)c(C#N)c(C)n2n1 (configuration not stated)
13,66.2,CCCCCCCCOc1ccc(-c2ncc(OC(=O)[C@@H](Cl)[C@@H](C)CC)cn2)c(F)c1F
14,134 to 139,O=C(O)C1(c2ccccc2)CCC2(CC1)OCCO2
15,117 to 119,CCOC(=O)c1sc(N2CCN(Cc3ccc(Cl)cc3)C2=O)nc1C
16,175 to 180,CC(=O)Nc1cc2c(c3c1OC(C)(C)C3)C(c1ccccc1)=NC(C)(C)C2
17,140 to 142,COc1cc(C2=C(c3cn(CCCNC(=O)C(CC(C)C)NC(=O)OC(C)(C)C)c4ccccc34)C(=O)NC2=O)cc(OC)c1OC (configuration not stated)
18,77 to 79,CC(C)COc1cc(O)c2c(c1)OC(C)(C)CC2=O
19,88 to 90,Cc1cc(Cl)ccc1N1CCCN(CC(C)C)C1=S
20,68 to 69,CCOC(=O)Cc1nc2cc(C)ccc2o1
21,152 to 154,NS(=O)(=O)c1ccc(Nc2nc(OCC3CCCCC3)c3[nH]cnc3n2)cc1
22,126 to 128,CCOc1ccc(-c2ccc3c(c2)C=C(C(=O)OC)CCN3C=O)cc1F
23,101,CCOC(=O)/C=C1/CO[C@](C)([C@H]2CC[C@H]3[C@@H](O[Si](C)(C)C(C)(C)C)CCC[C@@]32C)C1
24,> 250,Cc1c(C(=O)O)ccn2nc(-c3ccccc3)nc12
25,164 to 166,CC(=O)n1ncn(N=Cc2cccnc2)c1=O
26,71 to 72,COC(=O)c1cc2cc(C3OCCO3)ccc2[nH]1

row,melting point [°C],Structure (SMILES)
1,146 to 148,CCOc1nc(O)cc(OC)n1
2,50 to 51,CCCN(C(=O)C=C(C)C)c1cccc(Br)c1
3,170,CC(C)c1ccc(N(Cc2ccc(N(C)C)cc2)C(=O)C2CC(=O)Nc3ccccc32)cc1 (configuration not stated)
4,240,CN(C)c1ccc(-c2cncc(OC3SCC(O)C(O)C3O)c2)cc1 (configuration not stated)
5,244 to 246,CCCc1cc(=O)oc2c(C(=O)CC)c(O)cc(O)c12
6,132 to 134,CC(=O)OCc1ccc(S(=O)(=O)c2ccc(C)nc2Nc2c(C)cc(C)cc2C)cc1
7,90 to 91,CCOC(=O)Cc1nc(-c2ccccc2)oc1-c1ccsc1
8,99 to 101,CON1C(C)(C)CC(OC(=O)c2cccc(C(=O)OC3CC(C)(C)N(OC)C(C)(C)C3)c2)CC1(C)C
9,234 to 236,CCNC(=S)Nc1ccc2[nH]c3cnc(C(=O)OC(C)C)c(CC)c3c2c1
10,103 to 108,CC(=O)Nc1ccc(/C=C\COCCCCCCNCC(O)c2ccc(O)c(CO)c2)cc1 (configuration not stated)
11,144 to 148,Cc1ccc(S(=O)(=O)c2ccc3c(c2)c(CCNC(=O)OC(C)(C)C)cn3C)cc1
12,235 to 240,CC(=O)Nc1ccc(C=CC2=NNC(=O)SC2)cc1
13,150 to 153,CCOC(=O)c1cn(C2CC2)c2nc(N3C[C@@H](CN(CC)C(=O)C(F)(F)F)[C@@H](F)C3)c(F)cc2c1=O (relative stereo)
14,35,CC(=O)[Si](C)(C(C)(C)C)C(C)(C)C
15,241 to 243,Cc1c(C(=O)O)oc2c(C(C)(C)C)cc(C(C)(C)C)c(O)c12
16,135 to 137,CCOC(=O)C1(C(=O)N(Cc2ccccc2)Cc2ccccc2)CC(=O)N(C(C)c2ccccc2)C1 (configuration not stated)
17,105 to 107,CCOc1cccc(CNC(=O)[C@H]2N(C(=O)[C@@H](O)[C@H](Cc3ccccc3)NC(=O)c3cccc(O)c3C)CSC2(C)C)c1
18,212 to 213,CC12CCCc3cc(NC(=O)c4ccc(C(=O)O)cn4)cc(c31)CCC2
19,80 to 82,CCOC(=O)c1oc2ccc(Cl)cc2c1C
20,77 to 80,CCC(Cc1ccccc1)(C(=O)c1ccc(N(C)C)cc1)N(C)C (configuration not stated)
21,169 to 171,CON=Cc1cc(NC(=O)N2CCOCN2)c(F)cc1Cl
22,73 to 74,COc1cc(C#N)cc2c1OC(C)(C)C2
23,137 to 145,COc1cc(C)nc(NC(=O)NS(=O)(=O)c2cccc(NC(=O)NC(C)(C)C)c2)n1
24,235,CC(O)Cc1c2c(cc3c(=O)cc(C(=O)O)oc13)CCCC2 (configuration not stated)
25,138 to 140,COc1cccc(C2(COc3cccc4cc(NS(=O)(=O)C(F)(F)F)ccc34)N=CNO2)c1 (configuration not stated)

# The next lines start with the molecule.
row,Structure (SMILES),melting point [°C]
1,Cc1cc(-c2ccc(C(F)(F)F)nc2)nc(-c2cccc(-c3cccc(S(N)(=O)=O)c3)c2)n1,220
2,COC(=O)c1cc(-n2cnc(Br)c2)c(C(F)(F)F)cc1[N+](=O)[O-],90
3,COc1ccc(-n2cnc3ccc(-c4nnc(SCc5ccc(OC)c(C(F)(F)F)c5)o4)cc32)cc1,163 to 164
4,CCCCCCCCCCCC(=O)c1c[nH]c2ccccc12,129 to 130
5,Nc1ccccc1C(=O)Nc1ccc(C(F)(F)F)cc1,160 to 161
6,N#Cc1ccc(Nc2nnc(Cc3ccncc3)c3ccccc23)cc1,228 to 230
7,O=C1CCC[C@@H](c2ccc(Cl)cc2)N1c1ccccc1,77.5 to 80
8,COc1ccc(C2=Nc3ccc(N4CCCC4)cc3C(=O)C2)cc1,312 to 313
9,CC(C(=O)O)c1ccc(-c2ccc(F)cc2F)c(F)c1 (configuration not stated),105 to 108
10,CC#CC(O)(C#CC)c1cc(-c2cccc(Cl)c2)ccc1N,112 to 114
11,COc1c(F)c(NCc2ccccc2)c(F)c(OC)c1C(=O)O,85 to 86
12,NS(=O)(=O)NCc1csc2ccccc12,101
13,COc1cc2ncnc(N3CCNCC3)c2cc1OC,178 to 179
14,COC(=O)Nc1nc(-c2ccccc2)c(-c2nc3ccccc3c(=O)n2-c2ccccc2OC)s1,228 to 230
15,CCCCc1nc2c(N)nc3ccccc3c2n1CCCC(=O)c1ccccc1,178 to 180
16,Nc1ccc(-c2noc3cc(F)ccc23)cc1[N+](=O)[O-],239
17,COc1cnc(OC)n2nc(NS(=O)(=O)c3c(F)cccc3C(F)(F)F)nc12,201 to 203
18,NCCCc1cccnc1C(N)=O,153 to 156
19,CCCCOc1ccc(CCCOc2c(CC(=O)O)cccc2OC)c(Oc2ccc(C(F)(F)F)cn2)c1,69 to 70
20,CC(=O)Nc1ncc(C23CCCN(CC2)C3)o1 (configuration not stated),142 to 143
21,C=CCn1c(SCCF)n[nH]c1=O,65
22,O=CC(=Cc1cccc(OCc2ccc(Cl)cc2)c1)C(C=O)=Cc1cccc(OCc2ccc(Cl)cc2)c1,193 to 194
23,COc1ccc(-c2ccc(COc3cccc4cc(NS(=O)(=O)C(F)(F)F)ccc34)c(F)c2)cc1,108 to 111

row,Structure (SMILES),melting point [°C]
1,Cc1cc(Br)cnc1CCCCNc1nccc(=O)[nH]1,109 to 113
2,CC(C)Cc1nn(C)c(=O)c2c(SCCCO)n(Cc3cccc4ccccc34)nc12,141 to 142
3,O=C(c1ccccc1)c1cc(Cc2ccccc2)c(O)c2ccccc12,152 to 155
4,O=C(Nc1ccc(SC(F)(F)F)cc1)c1cc(Cl)c2ccccc2c1O,172 to 175
5,COc1ccc(C(=O)NCCC=CCCCNC(=O)c2ccc(OC)cc2)cc1,141 to 143
6,COc1cccc(C(O)c2cc3ccccc3s2)c1 (configuration not stated),63 to 65
7,O[C@@H]1Cc2ccccc2C[C@H]1N1CCN(c2ccccc2)CC1 (relative stereo),152 to 154
8,NS(=O)(=O)c1ccccc1C(=O)c1cccs1,122 to 125
9,COc1ccc(-c2nc3ccccc3n3cncc23)cc1,187 to 188
10,COCCSc1ccccc1S(N)(=O)=O,127 to 130
11,O=c1n(CCCN2CC=C(c3c[nH]c4ccccc34)CC2)nc2ccccn12,173
12,O=C1NCCc2[nH]c3c(F)cccc3c21,255 to 257
13,Cc1nc(C(Cl)(Cl)Cl)nc(O)c1Cl,130 to 145
14,N#Cc1cc2c(Oc3ccc(Cl)cc3)cncc2s1,140 to 142
15,Cc1ccc(-c2[nH]c(-c3ccc4ccccc4c3)nc2C(=O)Nc2nccs2)cc1,> 250
16,CCN1c2ccccc2N(C(=O)CN(C)C)c2ccccc2S1(=O)=O,115 to 116
17,CCCC1=C(C#N)S(=O)(=O)c2ccc(C(F)(F)F)cc2N1,200
18,CC(=O)N1CC(=O)N(C)C(=O)N1c1cc(Cl)c(C(C#N)c2ccc(Cl)cc2)c(Cl)c1 (configuration not stated),178
19,NC(=O)c1c(Cl)c(-c2ccccc2)n2c1CN(S(=O)(=O)c1cccc(C(F)(F)F)c1)CC2,158 to 159
20,Cn1cc(C2=C(c3cn(CCCNc4ncccc4[N+](=O)[O-])c4ccccc34)C(=O)NC2=O)c2ccccc21,218 to 220
21,CC(C)CCN1C(=O)C(NC(=O)Oc2ccccc2)C(=O)N(c2ccccc2F)c2ccccc21 (configuration not stated),226 to 227
22,NC(=O)Cn1c(=O)ccc2cc(Br)ccc21,257 to 258
23,CCCn1c(=O)c(N=O)c(N)n(CCc2ccc([N+](=O)[O-])cc2)c1=O,204 to 205
